Assay results published in patent US11053204B2, “Pyrimidinyloxy benzene derivatives as herbicides” (FMC Corporation, priority 2015, dated 2021).

Columns and labels:
Assay type in all cases: in vivo
[1] = system: wild poinsettia (Euphorbia heterophylla); experiment: Test C preemergence, plant response rating
[2] = system: pigweed, palmer (palmer pigweed, Amaranthus palmeri); experiment: Test C preemergence, plant response rating
kochia (Kochia scoparia) = experiment: Test C preemergence, plant response rating
[3] = system: windgrass (Apera spica-venti); experiment: Test C preemergence, plant response rating
[4] = system: galium (catchweed bedstraw, Galium aparine); experiment: Test C preemergence, plant response rating
[5] = system: surinam grass (Brachiaria decumbens); experiment: Test C preemergence, plant response rating
[6] = system: oat, wild (wild oat Avena fatua); experiment: Test C preemergence, plant response rating
[7] = system: johnsongrass (Sorghum halepense); experiment: Test C preemergence, plant response rating
[8] = system: barnyardgrass (Echinochloa crus-galli); experiment: Test C preemergence, plant response rating; conditions: Preemergence
[9] = system: chickweed (common chickweed, Stellaria media); experiment: Test C postemergence, plant response rating; conditions: for Plant response rating, Chickweed: scale 0 to 100; for Chickweed plant response rating: scale 0 to 100 (0 no effect, 100 complete control)
How it was run: (§1)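 Both timings shared one formulation, a non-phytotoxic solvent mixture with surfactant, and a greenhouse period of 13 to 15 d. Preemergence used seeded loam/sand or silt loam soil, postemergence used 2 to 18 cm plants; visual ratings ran from 0 (no effect) to 100 (complete control).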

[10] = system: ragweed (common ragweed, Ambrosia elatior); experiment: Test C postemergence, plant response rating; conditions: for Plant response rating, Ragweed: scale 0 to 100; for Ragweed plant response rating: scale 0 to 100 (0 no effect, 100 complete control)
How it was run: as §1

[11] = system: ryegrass, Italian (Italian ryegrass, Lolium multiflorum); experiment: Test C postemergence, plant response rating; conditions: for Plant response rating, Ryegrass, Italian: scale 0 to 100; for Ryegrass, Italian plant response rating: scale 0 to 100 (0 no effect, 100 complete control)
How it was run: as §1

[12] = system: velvetleaf (Abutilon theophrasti); experiment: Test C postemergence, plant response rating; conditions: for Plant response rating, Velvetleaf: scale 0 to 100; for Velvetleaf plant response rating: scale 0 to 100 (0 no effect, 100 complete control)
How it was run: as §1

[13] = system: wheat (winter wheat, Triticum aestivum); experiment: Test C postemergence, plant response rating; conditions: for Plant response rating, Wheat: scale 0 to 100; for Wheat plant response rating: scale 0 to 100 (0 no effect, 100 complete control)
How it was run: as §1

[14] = system: nutsedge, yellow (yellow nutsedge, Cyperus esculentus); experiment: Test C postemergence, plant response rating; conditions: for Plant response rating, Nutsedge, Yellow: scale 0 to 100; for Nutsedge, Yellow plant response rating: scale 0 to 100 (0 no effect, 100 complete control)
How it was run: as §1

[15] = system: blackgrass (Alopecurus myosuroides); experiment: Test C postemergence, plant response rating; conditions: for Plant response rating, Blackgrass: scale 0 to 100; for Blackgrass plant response rating: scale 0 to 100 (0 no effect, 100 complete control)
How it was run: as §1

[16] = system: lambsquarters (Chenopodium album); experiment: Test C postemergence, plant response rating; conditions: for Plant response rating, Lambsquarters: scale 0 to 100; for Lambsquarters plant response rating: scale 0 to 100 (0 no effect, 100 complete control)
How it was run: as §1

[17] = system: oat, wild (wild oat Avena fatua); experiment: Test C postemergence, plant response rating; conditions: for Plant response rating, Oat, Wild: scale 0 to 100; for Oat, Wild plant response rating: scale 0 to 100 (0 no effect, 100 complete control)
How it was run: as §1

[18] = system: morningglory (Ipomoea coccinea); experiment: Test C postemergence, plant response rating; conditions: for Plant response rating, Morningglory: scale 0 to 100; for Morningglory plant response rating: scale 0 to 100 (0 no effect, 100 complete control)
How it was run: as §1

C=C(Br)COC(=O)c1c(Br)cccc1Oc1ncc(Cl)cn1 [Compound 61]
50: Plant response rating, Pigweed, Palmer ([2]; 31 g ai/ha, scale 0 to 100) | Plant response rating, Barnyardgrass ([8]; 62 g ai/ha, scale of 0 to 100)
0: Plant response rating, Poinsettia, Wild ([1]; 16 g ai/ha, scale 0 to 100) | Plant response rating, Poinsettia, Wild ([1]; 31 g ai/ha, scale 0 to 100) | Plant response rating, Poinsettia, Wild ([1]; 62 g ai/ha, scale 0 to 100) | Plant response rating, Poinsettia, Wild ([1]; 125 g ai/ha, scale of 0 to 100) | Plant response rating, Kochia (kochia (Kochia scoparia); 16 g ai/ha, scale 0 to 100) | Plant response rating, Windgrass ([3]; 16 g ai/ha, scale 0 to 100) | Plant response rating, Galium ([4]; 16 g ai/ha, scale 0 to 100) | Plant response rating, Galium ([4]; 31 g ai/ha, scale 0 to 100) | Plant response rating, Surinam Grass ([5]; 16 g ai/ha, scale 0 to 100) | Plant response rating, Oat, Wild ([6]; 16 g ai/ha, scale 0 to 100) | Plant response rating, Oat, Wild ([6]; 31 g ai/ha, scale 0 to 100) | Plant response rating, Johnsongrass ([7]; 16 g ai/ha, scale 0 to 100) | Plant response rating, Johnsongrass ([7]; 31 g ai/ha, scale 0 to 100) | Plant response rating, Johnsongrass ([7]; 62 g ai/ha, scale 0 to 100) | Plant response rating, Barnyardgrass ([8]; 16 g ai/ha, scale 0 to 100) | Plant response rating, Barnyardgrass ([8]; 31 g ai/ha, scale 0 to 100)
60: Plant response rating, Surinam Grass ([5]; 62 g ai/ha, scale 0 to 100)
75: Plant response rating, Pigweed, Palmer ([2]; 125 g ai/ha, scale of 0 to 100)
65: Plant response rating, Barnyardgrass ([8]; 125 g ai/ha, scale of 0 to 100)
20: Plant response rating, Johnsongrass ([7]; 125 g ai/ha, scale of 0 to 100)
30: Plant response rating, Kochia (kochia (Kochia scoparia); 125 g ai/ha, scale of 0 to 100)
5: Plant response rating, Kochia (kochia (Kochia scoparia); 31 g ai/ha, scale 0 to 100) | Plant response rating, Kochia (kochia (Kochia scoparia); 62 g ai/ha, scale 0 to 100) | Plant response rating, Windgrass ([3]; 31 g ai/ha, scale 0 to 100) | Plant response rating, Oat, Wild ([6]; 62 g ai/ha, scale 0 to 100) | Plant response rating, Oat, Wild ([6]; 125 g ai/ha, scale of 0 to 100)
10: Plant response rating, Galium ([4]; 62 g ai/ha, scale of 0 to 100) | Plant response rating, Surinam Grass ([5]; 31 g ai/ha, scale 0 to 100)
25: Plant response rating, Surinam Grass ([5]; 125 g ai/ha, scale of 0 to 100)
70: Plant response rating, Pigweed, Palmer ([2]; 62 g ai/ha, scale 0 to 100) | Plant response rating, Windgrass ([3]; 125 g ai/ha, scale of 0 to 100)
40: Plant response rating, Pigweed, Palmer ([2]; 16 g ai/ha, scale 0 to 100) | Plant response rating, Windgrass ([3]; 62 g ai/ha, scale 0 to 100)
15: Plant response rating, Galium ([4]; 125 g ai/ha, scale of 0 to 100)

CCCC(=O)c1c(Br)cccc1Oc1ncc(Cl)cn1 [Compound 75]
30: Plant response rating, Velvetleaf ([12]; 16 g ai/ha) | Blackgrass plant response rating ([15]; 125 g ai/ha) | Plant response rating, Surinam Grass ([5]; 31 g ai/ha, scale 0 to 100) | Plant response rating, Johnsongrass ([7]; 62 g ai/ha, scale 0 to 100)
50: Ragweed plant response rating ([10]; 62 g ai/ha) | Plant response rating, Lambsquarters ([16]; 16 g ai/ha) | Plant response rating, Kochia (kochia (Kochia scoparia); 31 g ai/ha, scale 0 to 100)
45: Plant response rating, Windgrass ([3]; 31 g ai/ha, scale 0 to 100)
98: Chickweed plant response rating ([9]; 125 g ai/ha)
0: Plant response rating, Ryegrass, Italian ([11]; 16 g ai/ha) | Plant response rating, Wheat ([13]; 16 g ai/ha) | Wheat plant response rating ([13]; 62 g ai/ha) | Plant response rating, Nutsedge, Yellow ([14]; 16 g ai/ha) | Plant response rating, Nutsedge, Yellow ([14]; 31 g ai/ha) | Nutsedge, Yellow plant response rating ([14]; 62 g ai/ha) | Plant response rating, Blackgrass ([15]; 16 g ai/ha) | Plant response rating, Kochia (kochia (Kochia scoparia); 16 g ai/ha, scale 0 to 100) | Plant response rating, Galium ([4]; 16 g ai/ha, scale 0 to 100) | Plant response rating, Galium ([4]; 31 g ai/ha, scale 0 to 100) | Plant response rating, Galium ([4]; 125 g ai/ha, scale of 0 to 100) | Plant response rating, Surinam Grass ([5]; 16 g ai/ha, scale 0 to 100) | Plant response rating, Oat, Wild ([6]; 16 g ai/ha, scale 0 to 100) | Plant response rating, Oat, Wild ([6]; 31 g ai/ha, scale 0 to 100) | Plant response rating, Oat, Wild ([6]; 62 g ai/ha, scale 0 to 100) | Plant response rating, Johnsongrass ([7]; 16 g ai/ha, scale 0 to 100) | Plant response rating, Johnsongrass ([7]; 31 g ai/ha, scale 0 to 100)
40: Oat, Wild plant response rating ([17]; 62 g ai/ha) | Plant response rating, Poinsettia, Wild ([1]; 31 g ai/ha, scale 0 to 100)
5: Plant response rating, Ragweed ([10]; 16 g ai/ha) | Ryegrass, Italian plant response rating ([11]; 125 g ai/ha) | Plant response rating, Wheat ([13]; 31 g ai/ha) | Nutsedge, Yellow plant response rating ([14]; 125 g ai/ha) | Plant response rating, Blackgrass ([15]; 31 g ai/ha) | Plant response rating, Oat, Wild ([17]; 16 g ai/ha) | Plant response rating, Morningglory ([18]; 16 g ai/ha) | Plant response rating, Windgrass ([3]; 16 g ai/ha, scale 0 to 100) | Plant response rating, Galium ([4]; 62 g ai/ha, scale of 0 to 100) | Plant response rating, Oat, Wild ([6]; 125 g ai/ha, scale of 0 to 100) | Plant response rating, Barnyardgrass ([8]; 16 g ai/ha, scale 0 to 100)
55: Plant response rating, Lambsquarters ([16]; 31 g ai/ha)
10: Plant response rating, Ragweed ([10]; 31 g ai/ha) | Plant response rating, Ryegrass, Italian ([11]; 31 g ai/ha) | Ryegrass, Italian plant response rating ([11]; 62 g ai/ha) | Wheat plant response rating ([13]; 125 g ai/ha) | Blackgrass plant response rating ([15]; 62 g ai/ha) | Plant response rating, Poinsettia, Wild ([1]; 16 g ai/ha, scale 0 to 100)
35: Plant response rating, Velvetleaf ([12]; 31 g ai/ha) | Plant response rating, Oat, Wild ([17]; 31 g ai/ha) | Oat, Wild plant response rating ([17]; 125 g ai/ha) | Plant response rating, Poinsettia, Wild ([1]; 62 g ai/ha, scale 0 to 100) | Plant response rating, Poinsettia, Wild ([1]; 125 g ai/ha, scale of 0 to 100) | Plant response rating, Surinam Grass ([5]; 62 g ai/ha, scale 0 to 100)
60: Plant response rating, Chickweed ([9]; 16 g ai/ha) | Ragweed plant response rating ([10]; 125 g ai/ha) | Plant response rating, Barnyardgrass ([8]; 31 g ai/ha, scale 0 to 100)
95: Plant response rating, Pigweed, Palmer ([2]; 62 g ai/ha, scale 0 to 100)
80: Plant response rating, Surinam Grass ([5]; 125 g ai/ha, scale of 0 to 100) | Plant response rating, Barnyardgrass ([8]; 62 g ai/ha, scale of 0 to 100)
100: Plant response rating, Pigweed, Palmer ([2]; 31 g ai/ha, scale 0 to 100) | Plant response rating, Pigweed, Palmer ([2]; 125 g ai/ha, scale of 0 to 100) | Plant response rating, Kochia (kochia (Kochia scoparia); 125 g ai/ha, scale of 0 to 100) | Plant response rating, Windgrass ([3]; 62 g ai/ha, scale 0 to 100) | Plant response rating, Windgrass ([3]; 125 g ai/ha, scale of 0 to 100) | Plant response rating, Barnyardgrass ([8]; 125 g ai/ha, scale of 0 to 100)
90: Chickweed plant response rating ([9]; 62 g ai/ha) | Lambsquarters plant response rating ([16]; 125 g ai/ha) | Plant response rating, Kochia (kochia (Kochia scoparia); 62 g ai/ha, scale 0 to 100)
85: Plant response rating, Chickweed ([9]; 31 g ai/ha)
75: Velvetleaf plant response rating ([12]; 125 g ai/ha)
15: Plant response rating, Morningglory ([18]; 31 g ai/ha)
20: Morningglory plant response rating ([18]; 62 g ai/ha)
70: Velvetleaf plant response rating ([12]; 62 g ai/ha) | Lambsquarters plant response rating ([16]; 62 g ai/ha) | Plant response rating, Pigweed, Palmer ([2]; 16 g ai/ha, scale 0 to 100) | Plant response rating, Johnsongrass ([7]; 125 g ai/ha, scale of 0 to 100)
65: Morningglory plant response rating ([18]; 125 g ai/ha)
